Where two headings read alike, the source gives them in different places.
Columns and labels:
[1] = molecular target: T1, AHR (Homo sapiens, UniProt P35869); assay: In vitro assay 1: antagonism in human cell line (AHR transactivation, firefly luciferase reporter, kynurenic acid prestimulated); format: cell-based; conditions: AHR Antagonism Human IC50 [M]
T1 construct: U87 MG glioblastoma cells (ATCC #HTB-14) endogenously expressing AHR; endogenous in cells; host or cells: U87 MG glioblastoma cells (ATCC #HTB-14)
T1 sequence (P35869 11-848): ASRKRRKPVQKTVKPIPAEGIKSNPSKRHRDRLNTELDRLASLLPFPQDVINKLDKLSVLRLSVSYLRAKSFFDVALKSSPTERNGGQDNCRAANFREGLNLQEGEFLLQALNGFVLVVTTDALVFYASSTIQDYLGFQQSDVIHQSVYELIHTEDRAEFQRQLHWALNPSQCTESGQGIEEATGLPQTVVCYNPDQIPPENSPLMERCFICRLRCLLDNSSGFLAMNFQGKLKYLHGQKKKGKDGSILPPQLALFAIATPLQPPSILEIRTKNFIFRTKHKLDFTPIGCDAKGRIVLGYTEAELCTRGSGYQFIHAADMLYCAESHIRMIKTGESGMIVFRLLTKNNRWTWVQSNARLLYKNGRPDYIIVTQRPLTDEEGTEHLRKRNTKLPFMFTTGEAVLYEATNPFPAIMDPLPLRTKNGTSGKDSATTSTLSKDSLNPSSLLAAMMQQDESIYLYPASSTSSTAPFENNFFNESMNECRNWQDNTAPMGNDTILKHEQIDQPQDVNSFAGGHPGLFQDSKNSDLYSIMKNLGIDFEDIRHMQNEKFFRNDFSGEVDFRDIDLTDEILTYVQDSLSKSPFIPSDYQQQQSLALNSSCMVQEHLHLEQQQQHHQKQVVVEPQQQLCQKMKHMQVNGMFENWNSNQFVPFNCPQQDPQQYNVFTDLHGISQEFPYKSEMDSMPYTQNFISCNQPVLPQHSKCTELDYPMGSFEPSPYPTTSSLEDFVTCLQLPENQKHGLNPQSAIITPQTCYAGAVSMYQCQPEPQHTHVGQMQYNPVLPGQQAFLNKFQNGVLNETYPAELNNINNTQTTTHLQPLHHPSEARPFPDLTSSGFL
How it was run: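 Antagonism is measured against kynurenic acid prestimulation in U87 MG glioblastoma cells carrying stable DRE-luciferase and Renilla reporters. Positive inhibition control: 150 μM kynurenic acid with 5 μM staurosporine. Values are normalized to controls; repeats are averaged or given as medians.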

[2] = molecular target: T2, AHR (Mus musculus, UniProt P30561); assay: In vitro assay 3: antagonism in mouse cell line (AHR transactivation, firefly luciferase reporter, kynurenic acid prestimulated); format: cell-based
T2 sequence (P30561 1-848 P471L/N533S/M589L): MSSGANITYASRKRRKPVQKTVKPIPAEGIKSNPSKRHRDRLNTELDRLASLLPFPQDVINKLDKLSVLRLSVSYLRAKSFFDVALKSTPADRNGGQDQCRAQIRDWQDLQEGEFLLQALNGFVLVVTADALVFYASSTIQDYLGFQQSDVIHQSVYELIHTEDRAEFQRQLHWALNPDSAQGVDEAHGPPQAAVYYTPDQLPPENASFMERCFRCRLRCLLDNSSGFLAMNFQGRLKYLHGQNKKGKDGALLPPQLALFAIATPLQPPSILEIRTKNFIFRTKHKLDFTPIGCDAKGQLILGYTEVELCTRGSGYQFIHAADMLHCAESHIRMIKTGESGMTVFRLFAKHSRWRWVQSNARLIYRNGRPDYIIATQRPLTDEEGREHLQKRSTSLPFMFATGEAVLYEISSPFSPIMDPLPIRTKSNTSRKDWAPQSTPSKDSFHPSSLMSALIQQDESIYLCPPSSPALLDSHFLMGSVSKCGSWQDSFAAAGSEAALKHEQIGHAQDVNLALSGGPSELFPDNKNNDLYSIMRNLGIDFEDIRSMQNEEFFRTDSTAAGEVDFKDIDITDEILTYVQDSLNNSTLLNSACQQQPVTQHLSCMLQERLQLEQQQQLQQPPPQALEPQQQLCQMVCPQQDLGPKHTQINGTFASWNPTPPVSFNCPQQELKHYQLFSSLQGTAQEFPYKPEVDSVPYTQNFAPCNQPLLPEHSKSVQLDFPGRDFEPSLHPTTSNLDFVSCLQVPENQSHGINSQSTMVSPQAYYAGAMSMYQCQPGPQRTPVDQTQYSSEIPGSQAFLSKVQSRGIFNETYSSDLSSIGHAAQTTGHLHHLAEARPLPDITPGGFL
How it was run: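 Luminescence from an AHR-dependent DRE-luciferase reporter, stably integrated in mouse cells, quantifies blockade of kynurenic acid-driven activation. Unstimulated cells mark maximal inhibition; normalization uses both control types, and multiply tested compounds carry mean or median values.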

[3] = Hepa 1c1c7 cells, 200 μM kynurenic acid, 20 hours, firefly luciferase reporter, read-out: AHR Antagonism Mouse IC50
[4] = mouse Hepa 1c1c7 cells, 200 μM kynurenic acid, 20 hours, read-out: AHR Antagonism Mouse IC50
[5] = read-out: AHR Antagonism Mouse IC50, mouse Hepa 1c1c7 cells, 200 μM kynurenic acid, 20 hours

Compound: CC(C)n1cc(-c2nc3c4cccc(S(C)(=O)=O)c4nc(N[C@@H]4CNCCNC4=O)n3n2)cn1 [Example 944, (6R)-6-({7-(methanesulfonyl)-2-[1-(propan-2-yl)-1H-pyrazol-4-yl][1,2,4]triazolo[1,5-c]quinazolin-5-yl}amino)-1,4-diazepan-5-one]
- IC50 ([1]; firefly luciferase reporter): 1.67e-06 M
- IC50 [2, 3]: 4620 nM

Compound: CCCCNC(=O)CNc1nc2ccccc2c2nc(-c3ccncc3F)nn12 [Example 485, N-butyl-N^2-[2-(3-fluoropyridin-4-yl)[1,2,4]triazolo[1,5-c]quinazolin-5-yl]glycinamide]
- IC50 [1]: 7.54e-07 M
- IC50 [2, 4]: 10100 nM

Compound: Cc1c(-c2nc3c4ccccc4nc(N[C@@H]4CCCCNC4=O)n3n2)cnn1C [Example 68, (3R)-3-{[2-(1,5-dimethyl-1H-pyrazol-4-yl)[1,2,4]triazolo[1,5-c]quinazolin-5-yl]amino}azepan-2-one]
- IC50 [1]: 1.03e-08 M
- IC50 [2, 5]: 8.57 nM

Compound: CC(C)n1cc(-c2nc3c4cccc(Br)c4nc(N[C@@H]4CCCCNC4=O)n3n2)cn1 [Example 822, (3R)-3-({7-bromo-2-[1-(propan-2-yl)-1H-pyrazol-4-yl][1,2,4]triazolo[1,5-c]quinazolin-5-yl}amino)azepan-2-one]
- IC50 ([1]; firefly luciferase reporter): 7.23e-10 M
- IC50 [2, 3]: 1.68 nM

Compound: N#Cc1cccc(-c2nc3c4ccccc4nc(N[C@H]4CCCCNC4=O)n3n2)c1 [Example 385, 3-(5-{[(3S)-2-oxoazepan-3-yl]amino}[1,2,4]triazolo[1,5-c]quinazolin-2-yl)benzonitrile]
- IC50 [1]: 1.97e-06 M
- IC50 [2, 4]: 146 nM

Compound: COc1cccc(-c2nc3c4ccccc4nc(N[C@H](CC(C)C)C(=O)O)n3n2)c1 [Example 93, N-[2-(3-methoxyphenyl)[1,2,4]triazolo[1,5-c]quinazolin-5-yl]-D-leucine]
- IC50 [1]: 1.52e-07 M
- IC50 [2, 4]: 427 nM

Compound: O=C1NCCCC[C@H]1Nc1nc2ccccc2c2nc(-c3ccccc3F)nn12 [Example 55, (3R)-3-{[2-(2-fluorophenyl)[1,2,4]triazolo[1,5-c]quinazolin-5-yl]amino}azepan-2-one]
- IC50 [1]: 2.01e-09 M
- IC50 [2, 4]: 15.7 nM

Compound: N#Cc1cccc2c1nc(N[C@@H]1CCCCNC1=O)n1nc(-c3ccc(F)cc3)nc21 [Example 402, 2-(4-Fluorophenyl)-5-{[(3R)-2-oxoazepan-3-yl]amino}[1,2,4]triazolo[1,5-c]quinazoline-7-carbonitrile]
- IC50 [1]: 8.32e-09 M
- IC50 [2, 4]: 26.1 nM

Compound: Cc1ccccc1-c1nc2c3ccccc3nc(N[C@@H]3CCCCNC3=O)n2n1 [Example 42, (3R)-3-{[2-(2-methylphenyl)[1,2,4]triazolo[1,5-c]quinazolin-5-yl]amino}azepan-2-one]
- IC50 [1]: 3.03e-10 M
- IC50 [2, 5]: 0.158 nM

Compound: O=C1NCCCC[C@H]1Nc1nc2ccccc2c2nc(-c3ccc(F)c(Cl)c3)nn12 [Example 625, (3R)-3-{[2-(3-chloro-4-fluorophenyl)[1,2,4]triazolo[1,5-c]quinazolin-5-yl]amino}azepan-2-one]
- IC50 [1]: 1.5e-09 M
- IC50 [2, 5]: > 2000 nM

Compound: Cn1cc(-c2nc3c4ccccc4nc(NC4CCNC4=O)n3n2)cn1 (single isomer, unassigned) [Example 18, 3-{[2-(1-methyl-1H-pyrazol-4-yl)[1,2,4]triazolo[1,5-c]quinazolin-5-yl]amino}pyrrolidin-2-one]
- IC50 [1]: 1.11e-06 M
- IC50 [2, 4]: 2220 nM

Compound: COc1ccc(-c2nc3c4cccc(Br)c4nc(N[C@H](C)C(=O)N4CCOCC4)n3n2)cc1 [Example 773, (2R)-2-{[7-bromo-2-(4-methoxyphenyl)[1,2,4]triazolo[1,5-c]quinazolin-5-yl]amino}-1-(morpholin-4-yl)propan-1-one]
- IC50 [1]: 8.57e-10 M
- IC50 [2, 4]: 0.995 nM

Compound: COc1cccc(-c2nc3c4ccccc4nc(N[C@H]4CCCCNC4=O)n3n2)c1 [Example 76, (3S)-3-{[2-(3-methoxyphenyl)[1,2,4]triazolo[1,5-c]quinazolin-5-yl]amino}azepan-2-one]
- IC50 [1]: 4.82e-08 M
- IC50 [2, 4]: 4.57 nM

Compound: Cn1cncc1-c1nc2c3ccccc3nc(N[C@@H]3CCCCNC3=O)n2n1 [Example 610, (3R)-3-{[2-(1-methyl-1H-imidazol-5-yl)[1,2,4]triazolo[1,5-c]quinazolin-5-yl]amino}azepan-2-one]
- IC50 [1]: 2.44e-07 M
- IC50 [2, 4]: 86.5 nM

Compound: O=C1NCCCC[C@H]1Nc1nc2ccccc2c2nc(-c3ccco3)nn12 [Example 130, (3R)-3-{[2-(furan-2-yl)[1,2,4]triazolo[1,5-c]quinazolin-5-yl]amino}azepan-2-one]
- IC50 [1]: 4.55e-09 M
- IC50 [2, 4]: 5.82 nM

Compound: COc1cccc(-c2nc3c4c(C)cccc4nc(N[C@@H]4CCCCNC4=O)n3n2)c1 [Example 178, (3R)-3-{[2-(3-methoxyphenyl)-10-methyl[1,2,4]triazolo[1,5-c]quinazolin-5-yl]amino}azepan-2-one]
- IC50 [1]: 3.98e-09 M
- IC50 [2, 4]: 2.34 nM

Compound: C[C@@H](Nc1nc2c(Br)cccc2c2nc(-c3cnn(C)c3)nn12)C(=O)NCCN1CCCCC1 [Example 896, N^2-[7-bromo-2-(1-methyl-1H-pyrazol-4-yl)[1,2,4]triazolo[1,5-c]quinazolin-5-yl]-N-[2-(piperidin-1-yl)ethyl]-D-alaninamide]
- IC50 ([1]; firefly luciferase reporter): 2.72e-07 M
- IC50 [2, 3]: 133 nM

Compound: COc1ccc(-c2nc3c4c(OC)cccc4nc(N[C@@H]4CNCCNC4=O)n3n2)cc1 [Example 291, (6R)-6-{[10-methoxy-2-(4-methoxyphenyl)[1,2,4]triazolo[1,5-c]quinazolin-5-yl]amino}-1,4-diazepan-5-one]
- IC50 [1]: 2.65e-06 M
- IC50 [2, 4]: 2680 nM

Compound: CCCCC(Nc1nc2ccccc2c2nc(-c3cccc(OC(F)(F)F)c3)nn12)C(N)=O (single isomer, unassigned) [Example 324, N^2-{2-[3-(trifluoromethoxy)phenyl][1,2,4]triazolo[1,5-c]quinazolin-5-yl}-norleucinamide]
- IC50 [1]: 2.02e-08 M
- IC50 [2, 5]: 16.4 nM

Compound: CCn1cc(-c2nc3c4cccc(Cl)c4nc(N[C@@H]4CCCCNC4=O)n3n2)cn1 [Example 818, (3R)-3-{[7-chloro-2-(1-ethyl-1H-pyrazol-4-yl)[1,2,4]triazolo[1,5-c]quinazolin-5-yl]amino}azepan-2-one]
- IC50 ([1]; firefly luciferase reporter): 6.2e-10 M
- IC50 [2, 3]: 2.18 nM

Compound: COc1cccc(-c2nc3c4ccccc4nc(N[C@H](C)C(=O)NC(C)C)n3n2)c1 [Example 105, N^2-[2-(3-methoxyphenyl)[1,2,4]triazolo[1,5-c]quinazolin-5-yl]-N-propan-2-yl-D-alaninamide]
- IC50 [1]: 8.86e-09 M
- IC50 [2, 4]: 7.35 nM

Compound: O=C1NCCNC[C@H]1Nc1nc2c(Br)cccc2c2nc(-c3cnn(C(F)F)c3)nn12 [Example 978, (6R)-6-({7-bromo-2-[1-(difluoromethyl)-1H-pyrazol-4-yl][1,2,4]triazolo[1,5-c]quinazolin-5-yl}amino)-1,4-diazepan-5-one]
- IC50 ([1]; firefly luciferase reporter): 2.03e-09 M
- IC50 [2, 3]: 1.34 nM

— patent publication US20230113037A1 (Bayer Aktiengesellschaft, priority 2019, published 2023)
